Experimental findings from PubChem BioAssay AID330 (DTP/NCI, 2004) are described below.

This assay deals with P388 leukemia ip, CD2F1 mice, survival T/C. As to the kind of experiment: NCI In Vivo Anticancer Drug Screen. Data for tumor model P388 Leukemia (intraperitoneal) in CD2F1 (CDF1) mice. The note with it: endpoint: median survival time, higher = longer survival. In a few lines:
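Mice carrying the transplanted tumor received test compound or vehicle. Survival was recorded in each group, and the value is the treated-group measurement divided by that of the vehicle-treated control group.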

Where [1] appears, read: dose: 25.0 mg/kg/injection, schedule: Q01DX009 (ip), vehicle: saline.
Setting [2] is: dose: 50.0 mg/kg/injection, schedule: Q01DX009 (ip), vehicle: Klucel (hydroxypropylcellulose) (HPC).
Setting [3] is: dose: 100.0 mg/kg/injection, schedule: Q01DX009 (ip), vehicle: Klucel (hydroxypropylcellulose) (HPC).
Where [4] appears, read: dose: 200.0 mg/kg/injection, schedule: Q01DX009 (ip), vehicle: Klucel (hydroxypropylcellulose) (HPC).
[5] abbreviates: dose: 50.0 mg/kg/injection, schedule: Q01DX005 (ip), vehicle: Klucel (hydroxypropylcellulose) (HPC).
Where [6] appears, read: dose: 100.0 mg/kg/injection, schedule: Q01DX005 (ip), vehicle: Klucel (hydroxypropylcellulose) (HPC).
Setting [7] is: dose: 200.0 mg/kg/injection, schedule: Q01DX005 (ip), vehicle: Klucel (hydroxypropylcellulose) (HPC).
[8] abbreviates: dose: 60.0 mg/kg/injection, schedule: Q01DX005 (ip), vehicle: saline.
The mark [9] stands for this setting: dose: 120.0 mg/kg/injection, schedule: Q01DX005 (ip), vehicle: saline.
Where [10] appears, read: dose: 240.0 mg/kg/injection, schedule: Q01DX005 (ip), vehicle: saline.
[11] abbreviates: dose: 50.0 mg/kg/injection, schedule: Q01DX009 (ip), vehicle: saline.

Values joined by “and” are separate entries in the source; they are usually repeats but may differ in a detail not shown here. Identical values can stand only once. Inconclusive results and toxic doses are left out.

As to `CN=C(N)NCCCCCCCCNC(N)=NC`, the T/C (dose: 3.13 mg/kg/injection, schedule: Q01DX009 (ip), vehicle: saline with Tween-80) is 112 % of control; the T/C (dose: 3.13 mg/kg/injection, schedule: Q01DX009 (ip), vehicle: saline) is 124 % of control; the T/C (dose: 6.25 mg/kg/injection, schedule: Q01DX009 (ip), vehicle: saline with Tween-80) was 109 % of control; the T/C (dose: 6.25 mg/kg/injection, schedule: Q01DX009 (ip), vehicle: saline) was 109 % of control; the T/C (dose: 12.5 mg/kg/injection, schedule: Q01DX009 (ip), vehicle: saline with Tween-80) was 112 % of control; the T/C under setting [1] is 87 % of control.
Turning to `O=c1[nH]nnc2ccccc12`, the T/C under setting [2] is 105 % of control and the T/C under setting [3] was 114 % of control.
With `Cc1c(NC(=O)C(=O)O)ccc2c(=O)cc(C(=O)O)[nH]c12`, the T/C reads like this: under setting [2], 102 % of control and 118 % of control; under setting [3], 109 % of control and 117 % of control; under setting [4], 111 % of control and 124 % of control.
In the case of `CC1(C)CC(C)(OC(=O)c2ccc(F)cc2)N=N1` (stereo not drawn), the T/C is 103 % of control (dose: 12.5 mg/kg/injection, schedule: Q01DX009 (ip), vehicle: other); 113 % of control (dose: 25.0 mg/kg/injection, schedule: Q01DX009 (ip), vehicle: other); 108 % of control (dose: 50.0 mg/kg/injection, schedule: Q01DX009 (ip), vehicle: other); 113 % of control (dose: 100.0 mg/kg/injection, schedule: Q01DX009 (ip), vehicle: other); 118 % of control (dose: 200.0 mg/kg/injection, schedule: Q01DX009 (ip), vehicle: other).
Turning to `Cn1c(-c2ccc3c(c2)OCO3)nn(CN2CCOCC2)c1=S`, the T/C runs as follows: under setting [5], 97 % of control; under setting [6], 100 % of control; under setting [7], 107 % of control.
`CN(C)/C=C1\CCCCC1=C(C#N)C#N`: the T/C was 100 % of control (dose: 100.0 mg/kg/injection, schedule: Q04DX003 (ip), vehicle: saline); 93 % of control (dose: 200.0 mg/kg/injection, schedule: Q04DX003 (ip), vehicle: saline); 95 % of control (dose: 400.0 mg/kg/injection, schedule: Q04DX003 (ip), vehicle: saline).
As to `Cc1oc2ccccc2c(=O)c1CN1CCN(c2ccccc2)CC1`, the T/C was 103 % of control under setting [8], 101 % of control under setting [9] and 92 % of control under setting [10].
Turning to `CCCCOC(=O)C1=NNC(=O)C1`, the T/C (dose: 25.0 mg/kg/injection, schedule: Q01DX009 (ip), vehicle: Klucel (hydroxypropylcellulose) (HPC)) is 115 % of control; the T/C under setting [2] was 108 % of control; the T/C under setting [3] is 112 % of control; the T/C under setting [4] is 108 % of control.
For the compound `C=C1C(=O)OC2/C=C(\COC(C)=O)CCC(OC(C)=O)C3=CC(OC3=O)C12` (stereo not drawn), the T/C runs as follows: (dose: 1.87 mg/kg/injection, schedule: Q01DX009 (ip), vehicle: Klucel (hydroxypropylcellulose) (HPC)) 95 % of control; (dose: 3.75 mg/kg/injection, schedule: Q01DX009 (ip), vehicle: Klucel (hydroxypropylcellulose) (HPC)) 102 % of control; (dose: 7.5 mg/kg/injection, schedule: Q01DX009 (ip), vehicle: Klucel (hydroxypropylcellulose) (HPC)) 96 % of control; (dose: 15.0 mg/kg/injection, schedule: Q01DX009 (ip), vehicle: Klucel (hydroxypropylcellulose) (HPC)) 117 % of control.
Consider `COc1ccc2c(NCCCCCCNc3c4ccccc4nc4cc(OC)ccc34)c3ccccc3nc2c1`, for which the T/C is, setting by setting: (dose: 0.62 mg/kg/injection, schedule: Q## X009 (ip), vehicle: lactic acid) 151 % of control; (dose: 0.63 mg/kg/injection, schedule: Q01DX009 (ip), vehicle: other) 119 % of control; (dose: 1.25 mg/kg/injection, schedule: Q## X009 (ip), vehicle: lactic acid) 170 % of control; (dose: 2.5 mg/kg/injection, schedule: Q## X009 (ip), vehicle: lactic acid) 170 % of control; (dose: 5.0 mg/kg/injection, schedule: Q01DX009 (ip), vehicle: other) 154 % of control; (dose: 5.0 mg/kg/injection, schedule: Q## X009 (ip), vehicle: lactic acid) 164 % of control. For the same compound, the T/C runs as follows: (dose: 10.0 mg/kg/injection, schedule: Q01DX009 (ip), vehicle: other) 110 % of control; (dose: 10.0 mg/kg/injection, schedule: Q## X009 (ip), vehicle: lactic acid) 86 % of control.
`COC(=O)CC1C(C)=CCC2C(=O)C=C(OC)C(=O)C21C` (stereo not drawn): the T/C is 101 % of control under setting [5], 101 % of control under setting [6] and 100 % of control under setting [7].
On to `CN(CCS(=O)(=O)O)/N=C/c1ccc2c(c1)OCO2`, for which the T/C by setting is: (dose: 100.0 mg/kg/injection, schedule: Q04DX003 (ip), vehicle: Klucel (hydroxypropylcellulose) (HPC)) 103 % of control; (dose: 200.0 mg/kg/injection, schedule: Q04DX003 (ip), vehicle: Klucel (hydroxypropylcellulose) (HPC)) 100 % of control; (dose: 400.0 mg/kg/injection, schedule: Q04DX003 (ip), vehicle: Klucel (hydroxypropylcellulose) (HPC)) 100 % of control.
`C=CCNC(=S)N/N=C/c1nccc(-c2ccccc2)c1C`: the T/C (dose: 25.0 mg/kg/injection, schedule: Q01DX009 (ip), vehicle: saline with Tween-80) is 112 % of control and the T/C (dose: 50.0 mg/kg/injection, schedule: Q01DX009 (ip), vehicle: saline with Tween-80) is 86 % of control.
Take `O=C1CN(CN2CCOCC2)C(=O)CN1CN1CCOCC1`: the T/C reads like this: under setting [1], 115 % of control; under setting [11], 114 % of control.
On to `CC(O)(CCO)CCO`, for which the T/C (dose: 25.0 mg/kg/injection, schedule: Q01DX005 (ip), vehicle: water) was 98 % of control; the T/C (dose: 50.0 mg/kg/injection, schedule: Q01DX005 (ip), vehicle: water) is 100 % of control; the T/C (dose: 100.0 mg/kg/injection, schedule: Q01DX005 (ip), vehicle: water) is 98 % of control; the T/C (dose: 200.0 mg/kg/injection, schedule: Q01DX005 (ip), vehicle: water) is 99 % of control; the T/C (dose: 400.0 mg/kg/injection, schedule: Q01DX005 (ip), vehicle: water) was 99 % of control.
`Oc1ccc2c(c1O)/C(=C/C=NCC1(O)OCC(O)C(O)C1O)C=N2` (stereo not drawn): the T/C is 101 % of control under setting [8], 98 % of control under setting [9] and 101 % of control under setting [10].
`C=CO/C(C)=C(\[Se]c1ccccc1)C(C)=O`: the T/C reads like this: under setting [11], 99 % of control; (dose: 100.0 mg/kg/injection, schedule: Q01DX009 (ip), vehicle: saline) 100 % of control; (dose: 200.0 mg/kg/injection, schedule: Q01DX009 (ip), vehicle: saline) 104 % of control.
Regarding `CC1=C(/C=C/c2ccc(N(C)C)cc2)C(C)C(c2ccc(N(C)C)cc2)CC1=O` (stereo not drawn), the T/C by setting is: (dose: 25.0 mg/kg/injection, schedule: Q01DX001 (ip), vehicle: Klucel (hydroxypropylcellulose) (HPC)) 88 % of control; (dose: 50.0 mg/kg/injection, schedule: Q01DX001 (ip), vehicle: Klucel (hydroxypropylcellulose) (HPC)) 94 % of control; (dose: 100.0 mg/kg/injection, schedule: Q01DX001 (ip), vehicle: Klucel (hydroxypropylcellulose) (HPC)) 93 % of control.
As for `CC(=O)OCC1OC(CC(=O)c2ccccc2)C=CC1OC(C)=O` (stereo not drawn), the T/C (dose: 25.0 mg/kg/injection, schedule: Q01DX005 (ip), vehicle: saline with Tween-80) was 99 % of control; the T/C (dose: 50.0 mg/kg/injection, schedule: Q01DX005 (ip), vehicle: saline with Tween-80) is 102 % of control and 101 % of control; the T/C (dose: 100.0 mg/kg/injection, schedule: Q01DX005 (ip), vehicle: saline with Tween-80) was 100 % of control and 106 % of control; the T/C (dose: 200.0 mg/kg/injection, schedule: Q01DX005 (ip), vehicle: saline with Tween-80) was 97 % of control and 106 % of control.
As for `CCN(CC)CC1(C)NN=C2C(n3cccc3)=CC=CN21` (stereo not drawn), the T/C was 104 % of control under setting [8] and 100 % of control under setting [9].
Turning to `O=C1C[C@@H]2OCC=C3C[N+]4([O-])CC[C@]56c7ccccc7N1[C@H]5[C@H]2[C@H]3C[C@@H]64` (stereo partly drawn), the T/C is 95 % of control (dose: 12.5 mg/kg/injection, schedule: Q01DX005 (ip), vehicle: saline) and 88 % of control (dose: 25.0 mg/kg/injection, schedule: Q01DX005 (ip), vehicle: saline).
